Measured values taken from US11007192B2, “Use of 5-amino-2,3-dihydro-1,4-phthalazinedione in the treatment of chronic progressive multiple sclerosis” (METRIOPHARM AG, priority 2016, dated 2021).

Legend:
PPMS or SPMS = settings: five years (60 months) after start; 200 mg then 300 mg twice a day; baseline EDSS 4.0
Experimental: EDSS determination is then performed every 6 months. […] Thus, the dosage is increased to 300 mg twice a day. […] No dosage adjustment is necessary. […] The next treatment round might vary in dosages used and duration of the treatments depending on disease progression.

TNFalpha = settings: add on to standard therapy, acute phase RRMS patients; cited from earlier work
neuronal damage = settings: low concentrations in vitro; cited from earlier work
[1] = depending on compound, dosage and formulation; cited from earlier work
[2] = test system: adjuvant induced arthritis; settings: rat, in vivo
Experimental: Rats were evaluated for arthritis daily by an observer unaware of the treatment according to a macroscopic scoring system. An arthritis index was calculated for each rat by summing the scores for the individual paws.

inflammatory cytokines = settings: mouse, in vivo
Experimental: (§1) Form II has earlier been tested for its effects on circulating levels of TNF-alpha and IL-6 2 and 4 hours after administration of a sublethal dose of LPS in CD1 mice. Therefore, Form II was administered i.p. at the dose of 0.5, 1.5 and 15.0 mg/kg 15 minutes before LPS challenge.

IL-6 = settings: mouse, in vivo
Experimental: as §1

TNF-alpha = settings: mouse, in vivo
Experimental: as §1

Nc1cccc2c(=O)[nH][nH]c(=O)c12.[Na] [5-amino-2,3-dihydro-1,4-phthalazinedione sodium salt]
disability progression (PPMS or SPMS): 0.5 EDSS points
downregulation of TNFalpha (TNFalpha): promising
neuronal damage in neurodegenerative diseases (neuronal damage): prevent neuronal damage

Nc1cccc2c(=O)[nH][nH]c(=O)c12 [5-amino-2,3-dihydro-1,4-phthalazinedione]
half-life [1]: several hours

Nc1cccc2c(=O)[nH][nH]c(=O)c12.[Na] [Form I, 5-amino-2,3-dihydro-1,4-phthalazinedione sodium salt]
arthritic score [2]: significantly reduced
most effective dose [2]: medium
cumulative score of the disease ([2]; ip, 1 mg/kg): reduce significantly
effective dosage confirmed (inflammatory cytokines; ip): 0.5 mg/kg
effect when applied orally (inflammatory cytokines; po): there was an effect

Nc1cccc2c(=O)[nH][nH]c(=O)c12.[Na] [Form II, 5-amino-2,3-dihydro-1,4-phthalazinedione sodium salt]
blood levels of inflammatory cytokines provoked by sublethal dose of LPS (inflammatory cytokines): significantly reduced
Downregulation of IL-6 compared to vehicle (IL-6): significant
Downregulation of IL-6 significant compared to vehicle (IL-6): not
dose with best efficacy in down-regulation of IL-6 (IL-6): 0.5 mg/kg
Downregulation of TNF-alpha compared to vehicle (TNF-alpha): significant
Downregulation of TNF-alpha significant compared to vehicle (TNF-alpha): not
dose with best efficacy in down-regulation of TNF-alpha (TNF-alpha): 0.5 mg/kg
